Reference: US20090208597A1, “HEAT PROCESSED VEGETABILIC FIBER PREPARATION AND ITS USE AS INHIBITOR OF THE EFFECTS OF CARCINOGENIC SUBSTANCES IN HUMANS OR ANIMALS” (ESSENTYS AB, priority 2006, published 2009)

Columns and labels:
[1] = system: small intestine of male BALB mice; test: Povex in food of mice treated with acrylamide, histomorphometry of small intestine (Example 4); type: in vivo
Protocol: The aim of this study was to investigate if regular and heat Povex can protect small intestine against acrylamide toxic influence. The point was to establish what histological changes can acrylamide cause to small intestine tissue and if Povex can reverse or decrease these possible changes.
Three months experiment was performed on males BALB mince. Two doses of acrylamide (2 mg/day/kg b.w., and 0.1 mg/day/kg b.w.) in drinking water and two types of Povex heated (Treated) and normal (Untreated) added to food were provided for animals.
Histology and histomorphometry of small intestine was performed. The examined parameters were: fractal dimension of small intestine, mitosis inside crypts and apoptosis count per mm^2 of tissue.
Seventy-five 9-weeks old male and seventy-five 7 to 9 weeks old female BALB mice (Laboratory), weighing about 20 g, were used in whole experiment. Mice were housed ten per box of the same sex. This part of experiment and analysis obtained from is made on twenty eight male BALB mice.
Three types of formulated mixtures were manufactured: • Labodiet MLF control. The receipt of this food is based on the energy needs according to the Polish norm for feeding domestic animals. • Labodiet MLF 2% n Povex. The receipt of this food is based one the control one. The food was enriched with 2% of Povex. • Labodiet MLF 2% praz Povex. The receipt of this food is based one the control one. The food was enriched with 2% of heated Povex till 160° C.
Before the beginning of the experiment, we measured water consumption in 24 hours of 5 groups of mice. The average of daily-consumption was 10 mL/day/kg b.w. This consumption was used to calculate the concentration of the two doses of acrylamide: The high dose was calculated from 2 mg/day/kg b.w. and the low dose from 0.1 mg/day/kg b.w. The first dilution of acrylamide in tap water was made directly with the powder and 3 L of both concentrations were prepared. […] The volume left in the bottle was measured and put in a table to follow the consumption of acrylamide through the water. […]

BALB mice = test: Potato fiber supplemented diet in acryl amide exposed mice, histomorphology of intestine and liver (Example 1); type: in vivo; details: acryl amide added to the drinking water; 90 days
Protocol: The main aim of these studies was to see if a potato fiber supplemented diet had any effect on acryl amide induced cancer development in mice.
Seventy five 9-weeks old male and seventy five 7 to 9 weeks old female BALB mice (Laboratory), weighing about 20 g, were used. Mice were housed ten per box of the same sex. Solid food and water were allowed in sufficient quantities. The animals were kept in an animal house where the humidity and temperature were controlled and where a 12 h light period was kept. The experiment has been reviewed and approved by Lund University ethic committee, application M140-03.
2/ Labodiet MLF 2% and potato fiber preparation (Povex®). The receipt of this food/feed is based on the control food/feed. The food/feed was enriched with 2% of Povex®.
3/ Labodiet MLF 2% heated potato fiber preparation (Povex®). […]
It was found suitable to use the commercial (Sigma-Aldrich, St Louis, Mo.) acryl amide for electrophoresis in the form of powder (minimum 99%). […] Before the beginning of the experiment, the water consumption during 24 h of 5 groups of mice was measured. […] This consumption was used to calculate the concentration of the two doses of acryl amide: The high dose was calculated from 2 mg/day/kg b.w. and the low dose from 0.1 mg/day/kg b.w. […] The volume left in the bottle was measured and listed in a table in order to follow the consumption of acryl amide through the water. […]

For `C=CC(N)=O` [Acryl amide, acryl amide], the “number of mitosis inside small intestine crypt” value ([1]; small and large dose of AA with standard food vs control group) was “significant decrease”, the “number of apoptosis/mm^2 in small intestine tissue” value ([1]; standard food + large or low dose of AA) was “elevated number of apoptotic cells” and the “fractal dimension of small intestine mucosa” value ([1]; standard food and low dose of AA (0.1 mg) vs control group) was “difference between control group and animals getting standard food and low dose of AA”. The “histomorphological parameters of the intestine and liver” value (BALB mice) was “affected a majority of the measured histomorphological parameters”.
